Positions of bridges follow the written chain, without caps; N, C: chain ends. No end group written: not given here.
Tests used:
[1] = biological target: T1, delta PKC (Cricetulus griseus, UniProt A0A8C2N0P5); assay: Translocation of delta PKC to the membrane fraction of CHO cells upon PMA stimulation; assay type: cell-based; conditions: CHO cells pretreated 1 μM for 15 minutes, PMA 10 nM for 5 minutes, FIGS. 8A-8B
T1 construct: endogenous in cells; host or cells: CHO cells
Description: The ability of the annexin V peptide to block the intracellular interaction of delta PKC and annexin V was illustrated in the following study. The annexin V peptide (SEQ ID NO: 1) was conjugated to a TAT47-57 carrier peptide (SEQ ID NO:26) through an N-terminal Cys-Cys bond, as previously described (Chen, L. et al., Proc. Natl. Acad. Sci. USA, 98:11114-9 ((2001)). This peptide, identified herein as SEQ ID NO:29 and referred to as TAT-AnxV peptide, was used to pretreat (1 μM for 15 minutes) CHO cells prior to stimulation with PMA (10 nM for 5 minutes). For comparison, the annexin V peptide sequence was modified at the Arg (R) residue with a Glu (E) residue, to form a peptide having the sequence LQANEDPD, identified herein as SEQ ID NO:30. Substitution of E for R confers a charge difference between annexin V and delta PKC. This peptide was also attached to a TAT carrier peptide via N-terminal modification with a Cys-Cys bond. The conjugate is referred to herein as TAT-AnxV(R→E) (SEQ ID NO:31) and is denoted in some figures as “EpAnxV.” Cells were similarly pretreated with TAT-AnxV(R→E), prior to stimulation with PMA. As controls, some cells were left untreated and other cells were exposed only to PMA. […]

[2] = tested on: isolated rat hearts; assay: Ex vivo ischemia/reperfusion in isolated rat hearts; conditions: for infarct size: treated 10 minutes prior to 30 minutes ischemia, 60 minutes reperfusion, FIG. 9A
Description: The physiologic impact of disruption of the delta PKC-annexin V complex was evaluated in an ex vivo ischemia/reperfusion study using the annexin V peptide, TAT-AnxV, and its mutant, TAT-AnxV(R→E). As described in Example 7, isolated rat hearts were treated with TAT-AnxV or TAT-AnxV(R→E) for 10 minutes prior to induction of an ischemic episode. The ischemic episode lasted for 30 minutes, at which time flow to the heart was returned for 60 minutes (reperfusion). After the reperfusion period, cardiac effluent was collected and analyzed for creatine phosphokinase (CPK). The hearts were stained and visually inspected for live and dead tissue. Infarct size was measured by taking the average of the dead (white) tissue on both sides of the tissue slice.
A similar study was conducted, except rather than pretreating the isolated hearts with the annexin V peptide, the peptide was administered after the ischemic event and during the initial 10 minutes of the reperfusion period. Hearts were similarly treated with the mutant peptide, TAT-AnxV(R→E).
Rats were anesthetized and their hearts were rapidly removed and cannulated via the aorta for retrograde perfusion (Colbert, M. et al., J. Clin. Invest., 100:1958 (1997)). The hearts were left untreated, or were pretreated with the annexin V peptide, conjugated to TAT, (TAT-AnxV, SEQ ID NO:29) or with its mutant, TAT-AnxV(R→E) (SEQ ID NO:31), for 10 minutes prior to a 30 minutes of ischemia. Ischemia was induced by interrupting flow for 30 minutes and then reestablishing flow for 60 minutes (reperfusion). Cardiac effluent was collected for 15 minutes after reperfusion and assayed for creatine phosphokinase (CPK) using a Sigma kit. Hearts were stained with 2,3,5-triphenyltetrazolium chloride ([…]) to visualize live tissue (red) and dead tissue (white), and infarct size was measured by taking the average of the white area on both sides of the tissue slice (n=3, p<0.05). Results are shown in FIGS. 9A-9B and FIGS. 10A-10B.

[3] = biological target: T2, delta PKC (Homo sapiens, UniProt Q05655); assay: In vitro kinase assay, histone phosphorylation by delta PKC; assay type: biochemical
T2 construct: purchased Panvera LLC, now Invitrogen Corporation
Description: In another study, the ability of annexin V to increase the catalytic activity of delta PKC in vitro was evaluated. Full-length, recombinant delta PKC (SEQ ID NO:3) and epsilon PKC (SEQ ID NO:6) were separately incubated in the presence of kinase buffer, ATP, or histone, as described in Example 3. Activators of PKC, phosphatidylserine (PS) and diacylglycerol (DAG), were added along with annexin V, JTV-519, a 1,4 benzothiazepine derivative that activates delta PKC (Inagaki, K. et al., Circulation, 101:797 (2000)), or a mixture of annexin V and JTV-519.
200 ng of pure delta PKC or epsilon PKC (Panvera LLC, now Invitrogen Corporation, Carlsbad, Calif.) were incubated in 100 μL kinase buffer (20 mM Tris pH 7.4, 50 mM MgCl2, 0.3 μCi/reaction [γ-^32P]ATP (Amersham Biosciences), 9 μM/reaction ATP (Sigma), 30 μg/reaction myelin basic protein or histone A1 (Sigma); 100 μM lipid vesicle mixture (90% phosphatidylserine (PS): 10% diacylglycerol (DAG)), 1 mM CaCl2, 1 μM JTV519, and/or 20 ng of Annexin V/reaction were added, where applicable. The kinase reaction was stopped by the addition of SDS sample buffer, and extent of histone phosphorylation assessed after separation on 15% SDS-PAGE and transfer onto nitrocellulose membrane by autoradiography.

[4] = biological target: T3, annexin V and delta PKC interaction (Homo sapiens, UniProt Q05655); assay: Cross-linking immuno-precipitation of delta PKC probed with anti-annexin V in cardiac myocytes; assay type: cell-based; conditions: cardiac myocytes stimulated with the agent, FIG. 5
T3 construct: endogenous in cells; host or cells: cardiomyocytes
Description: Example 4 describes a study where cardiac myocytes were stimulated with a selected agent and then immuno-precipitated with anti-delta PKC after cross-linking. The cell lysates were then probed with anti-annexin V and visualized with ECL Western blotting. […] The stimulation agent was applied to the cells for times of between 30 seconds to 20 minutes, prior to lysing.
Cardiomyocytes were treated with phorbol 12-myristate 13-acetate (PMA; 10 nM), hydrogen peroxide (H2O2; 5 mM), JTV-519, or delta V1-1 peptide (1 μM) and JTV-519 (1 μM), for times of between 30 seconds to 5 minutes. After the lapsed time, the cells were washed with cold PBS, and homogenized on ice with trituration in homogenization buffer (20 mM Tris pH 7.4, 2 mM EDTA, 10 mM EGTA, 0.25M sucrose, 12 mM O-mercaptoethanol, and protease inhibitor cocktail (Sigma), 0.1% formaldehyde. After 30 min at 4° C., the lysates were quenched with 0.14M glycine for 20 min at 4° C., and samples spun at 14K rpm at 4° C. The supernatant was incubated with 1 μg anti-delta PKC antibody (Santa Cruz Biotechnology, Inc., Santa Cruz, Calif.) for 1 hour, then with proteinG beads (Invitrogen Corporation) for 3 hours at 4° C. The beads where then washed with wash buffer (20 mM Tris pH 7.5, 2 mM EDTA, 100 mM NaCl, 12 mM β-mercaptoethanol, 0.1% Triton), and separated on 7.5% SDS-PAGE, transferred to nitrocellulose, and probed with anti-annexin V (Santa Cruz Biotechnology, Inc., Santa Cruz, Calif.), followed by visualization by ECL Western blotting.

[5] = biological target: T4, delta PKC/annexin V interaction (Cricetulus griseus, UniProt A0A8C2N0P5); assay: Cross-linking co-immunoprecipitation of annexin V and delta PKC in CHO cells; assay type: cell-based
T4 construct: endogenous in cells; host or cells: CHO cells
Description: A similar study was conducted to further evaluate the in vitro, intracellular interactions of delta PKC and annexin V. Cellular interactions of delta PKC/annexin V interaction in CHO cells were stabilized with a cross-linking agent, after stimulation with 10 nM PMA. The complexes formed with delta PKC were then immuno-precipitated and tested for the presence of annexin V. The SDS-PAGE gel is shown in FIG. 6A and a corresponding graph quantifying percent association of annexin V and delta PKC as a function of time is shown in FIG. 6B. […] The interaction is relatively short-lived, and the proteins disassociated after 1 minute of stimulation.
The effect of JTV-519, an activator of delta PKC, on the association of annexin V and delta PKC was also evaluated in this study. Cells were treated with JTV-519, and the association of annexin V and delta PKC was examined using the co-immunoprecipitation procedure described above. […] PMA caused the disassociation of the JTV-induced complex at 30 seconds, the time of maximal PMA-induced association. […] Whereas the cytosolic fraction of the cells contained a steady low level of the complex, the majority of the complex was found in the particulate fraction of the cells, and disappearance from the particulate fraction followed the same time-course as observed in whole cell lysates (compare FIG. 6D bottom panel with FIG. 6B).

T2 sequence (Q05655 whole entry): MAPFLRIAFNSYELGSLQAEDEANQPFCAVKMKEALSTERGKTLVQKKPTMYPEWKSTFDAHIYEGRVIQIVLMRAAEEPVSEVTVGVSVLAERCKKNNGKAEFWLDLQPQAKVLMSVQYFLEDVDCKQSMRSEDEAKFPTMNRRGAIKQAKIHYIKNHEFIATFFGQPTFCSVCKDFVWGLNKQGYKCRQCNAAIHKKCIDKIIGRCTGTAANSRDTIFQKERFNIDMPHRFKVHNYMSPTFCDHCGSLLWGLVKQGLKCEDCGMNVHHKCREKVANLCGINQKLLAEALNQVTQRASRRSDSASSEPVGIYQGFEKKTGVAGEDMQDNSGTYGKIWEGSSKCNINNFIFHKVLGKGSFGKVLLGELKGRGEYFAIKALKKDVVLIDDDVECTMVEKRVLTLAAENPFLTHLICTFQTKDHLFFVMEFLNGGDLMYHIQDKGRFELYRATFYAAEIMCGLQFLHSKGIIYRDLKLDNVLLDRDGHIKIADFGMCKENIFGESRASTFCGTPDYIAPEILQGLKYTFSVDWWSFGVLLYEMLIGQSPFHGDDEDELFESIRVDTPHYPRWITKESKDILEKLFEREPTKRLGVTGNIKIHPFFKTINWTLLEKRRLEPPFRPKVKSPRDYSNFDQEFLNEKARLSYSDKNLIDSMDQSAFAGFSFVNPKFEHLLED
T4 sequence (A0A8C2N0P5 1-676): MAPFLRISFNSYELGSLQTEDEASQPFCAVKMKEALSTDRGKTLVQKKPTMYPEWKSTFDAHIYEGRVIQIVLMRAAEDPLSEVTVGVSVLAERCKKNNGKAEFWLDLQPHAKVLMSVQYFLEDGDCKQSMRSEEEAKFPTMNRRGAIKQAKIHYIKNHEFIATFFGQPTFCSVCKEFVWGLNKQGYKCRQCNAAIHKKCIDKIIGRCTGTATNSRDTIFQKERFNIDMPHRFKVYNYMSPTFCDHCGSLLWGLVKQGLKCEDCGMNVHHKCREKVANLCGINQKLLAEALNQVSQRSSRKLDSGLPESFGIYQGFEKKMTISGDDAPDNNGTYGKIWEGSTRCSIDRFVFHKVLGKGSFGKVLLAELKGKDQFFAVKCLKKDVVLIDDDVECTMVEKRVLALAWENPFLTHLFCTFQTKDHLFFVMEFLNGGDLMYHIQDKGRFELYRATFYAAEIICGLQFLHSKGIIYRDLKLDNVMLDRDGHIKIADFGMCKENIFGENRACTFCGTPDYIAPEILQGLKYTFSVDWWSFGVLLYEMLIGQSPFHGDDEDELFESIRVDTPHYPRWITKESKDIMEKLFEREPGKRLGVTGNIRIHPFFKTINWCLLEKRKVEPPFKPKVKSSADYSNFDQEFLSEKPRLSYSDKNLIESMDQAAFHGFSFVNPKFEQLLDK
T4 sequence (G3I5A4 1-321 partner): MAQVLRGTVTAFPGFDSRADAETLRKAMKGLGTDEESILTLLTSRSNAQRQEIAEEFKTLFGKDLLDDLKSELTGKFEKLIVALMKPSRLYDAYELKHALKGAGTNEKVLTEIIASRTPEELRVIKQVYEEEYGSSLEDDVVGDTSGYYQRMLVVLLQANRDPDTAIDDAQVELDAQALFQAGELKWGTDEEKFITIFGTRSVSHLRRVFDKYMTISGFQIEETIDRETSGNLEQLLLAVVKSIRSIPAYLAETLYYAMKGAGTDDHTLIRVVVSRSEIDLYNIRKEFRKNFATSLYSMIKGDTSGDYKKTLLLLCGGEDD
T1 sequence (A0A8C2N0P5 1-676): as the sequence (A0A8C2N0P5 1-676) above
T3 sequence (Q05655 whole entry): as the sequence (Q05655 whole entry) above

Row | Molecule | translocation of delta PKC to the cell membrane [1] | infarct size [2] | creatine phosphokinase (CPK) released ([2]; treated 10 minutes prior to ischemia, FIG. 9B) | catalytic activity of delta PKC (histone phosphorylation) ([3]; in the presence of PS/DAG, FIG. 4A) | catalytic activity of delta PKC (histone phosphorylation) ([3]; in the presence of annexin V and PS/DAG, FIG. 4A Lane 5) | interaction of annexin V and delta PKC [4] | association of annexin V and delta PKC ([5]; basal conditions, FIGS. 6A-B) | cellular localization of the delta PKC-annexin V complex ([5]; soluble versus particulate fraction, FIG. 6D)
1 | TAT-AnxV: conjugate of SEQ ID NO:1 joined to a TAT carrier peptide through an N-terminal cysteine-cysteine bond (YGRKKRRQRRRCCLQANRDPD; disulfide 12-13 (inferred)) | blocked the translocation of delta PKC | statistically significant decrease in infarct size | reduced level of creatine phosphokinase |  |  |  |  | 
2 | COc1ccc2c(c1)CN(C(=O)CCN1CCC(Cc3ccccc3)CC1)CCS2 [JTV-519] |  |  |  | about the same extent as observed for delta PKC in the presence of PS/DAG alone | blocked the increased catalytic activity observed with annexin V | greatly enhanced | full association | most of the δPKC-annexin V complex remained in the soluble fraction
3 | TAT-AnxV(R→E): conjugate of SEQ ID NO:30 joined to a TAT carrier peptide through an N-terminal cysteine-cysteine bond (YGRKKRRQRRRCCLQANEDPD; disulfide 12-13 (inferred)) | lost its inhibitory effect on delta PKC translocation | did not inhibit the delta PKC-induced damage |  |  |  |  |  | 

— patent US20090155236A1, “Peptide sequence for modulation of delta protein kinase c” (NATIONAL INSTITUES OF HEALTH (NIH), U.S. DEPT OF HEALTH AND …, priority 2004, published 2009)
